Measurements taken from publication PMC12044326 (Clinical Pharmacology in Drug Development, 2025).

Assays:
CYP3A4 = system: CYP3A4; parameters: method as in PMID 15242978, PMID 9929500; details: cited from earlier work
in vitro = details: human, Caco-2

Papp (in vitro) [×10⁻⁶ cm/s]	SMILES	CYP3A4 inhibitor potency over ketoconazole (CYP3A4) [fold]
	CCC(C)n1ncn(-c2ccc(N3CCN(c4ccc(OCC5COC(Cn6cncn6)(c6ccc(Cl)cc6Cl)O5)cc4)CC3)cc2)c1=O (centres unmarked) [itraconazole]	~10
27.8	CC(C)NCC(O)COc1cccc2ccccc12 (centres unmarked) [propranolol, reference compound]	
